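Briefly, cells in 96-well plates were exposed to five compound concentrations for 48 h, and endpoints were estimated by linear interpolation. At the GI50, growth is halved. TGI marks complete inhibition of growth.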
Tests used:
Experiment in all cases: inhibition of tumour cell growth, NCI panel, 48 h
[1] = test system: 786-0 renal
[2] = test system: A498 renal
[3] = test system: A549 NSCLC
[4] = test system: ACHN renal
[5] = test system: CAKI-1 renal
[6] = test system: CCRF-CEM leukemia
[7] = test system: COLO 205 colon
[8] = test system: DLD-1 colon
[9] = test system: DMS 114 small cell lung
[10] = test system: DMS 273 small cell lung
[11] = test system: EKVX NSCLC
[12] = test system: HCC-2998 colon
[13] = test system: HCT-116 colon
[14] = test system: HCT-15 colon
[15] = test system: HL-60(TB) leukemia
[16] = test system: HOP-18 NSCLC
[17] = test system: HOP-62 NSCLC
[18] = test system: HOP-92 NSCLC
[19] = test system: HT29 colon
[20] = test system: IGROV1 ovarian
[21] = test system: K-562 leukemia
[22] = test system: KM12 colon
[23] = test system: KM20L2 colon
[24] = test system: LOX IMVI melanoma
[25] = test system: LXFL 529 NSCLC
[26] = test system: M14 melanoma
[27] = test system: M19-MEL melanoma
[28] = test system: MALME-3M melanoma
[29] = test system: MOLT-4 leukemia
[30] = test system: NCI-H226 lung
[31] = test system: NCI-H23 lung
[32] = test system: NCI-H460 lung
[33] = test system: NCI-H522 lung
[34] = test system: OVCAR-3 ovarian
[35] = test system: OVCAR-4 ovarian
[36] = test system: OVCAR-5 ovarian
[37] = test system: OVCAR-8 ovarian
[38] = test system: RPMI-8226 leukemia
[39] = test system: RXF 393 renal
[40] = test system: RXF-631 renal
[41] = test system: SF-268 CNS
[42] = test system: SF-295 CNS
[43] = test system: SF-539 CNS
[44] = test system: SK-MEL-2 melanoma
[45] = test system: SK-MEL-28 melanoma
[46] = test system: SK-MEL-5 melanoma
[47] = test system: SK-OV-3 ovarian
[48] = test system: SN12C renal
[49] = test system: SNB-19 CNS
[50] = test system: SNB-75 CNS
[51] = test system: SNB-78 CNS
[52] = test system: SR leukemia
[53] = test system: SW-620 colon
[54] = test system: TK-10 renal
[55] = test system: U251 CNS
[56] = test system: UACC-257 melanoma
[57] = test system: UACC-62 melanoma
[58] = test system: UO-31 renal
[59] = test system: XF 498 CNS

For `COc1cccc(/C=C/C(=O)c2sc(C(N)=S)nc2C)c1O`, the TGI [1] was > 100 µM, the TGI [2] was > 100 µM and the TGI [3] was > 100 µM. For the same compound, the TGI [4] was > 100 µM, the TGI [5] was > 100 µM and the TGI [6] was 64.2 µM. For the same compound, the TGI [7] was > 100 µM, the TGI [8] was > 68.5 µM and the TGI [9] was > 100 µM. For the same compound, the TGI [10] was > 91.3 µM, the TGI [11] was > 100 µM and the TGI [12] was > 100 µM. For the same compound, the TGI [13] was > 92.5 µM, the TGI [14] was > 76.5 µM and the TGI [15] was > 100 µM. For the same compound, the TGI [16] was > 100 µM, the TGI [17] was > 100 µM and the TGI [18] was > 100 µM. The TGI [19] was > 100 µM, the TGI [20] was > 100 µM and the TGI [21] was > 100 µM. For the same compound, the TGI [22] was > 100 µM, the TGI [23] was > 100 µM and the TGI [24] was 56.7 µM. For the same compound, the TGI [25] was > 50.1 µM, the TGI [26] was > 100 µM and the TGI [27] was > 100 µM. The TGI [28] was > 100 µM, the TGI [29] was > 82.8 µM and the TGI [30] was > 100 µM. For the same compound, the TGI [31] was > 100 µM, the TGI [32] was > 100 µM and the TGI [33] was > 74 µM. The TGI [34] was > 100 µM, the TGI [35] was > 100 µM and the TGI [36] was > 100 µM. The TGI [37] was > 100 µM, the TGI [38] was > 83.3 µM and the TGI [39] was > 100 µM. For the same compound, the TGI [40] was > 100 µM, the TGI [41] was > 100 µM and the TGI [42] was > 100 µM. The TGI [43] was 97 µM, the TGI [44] was > 100 µM and the TGI [45] was > 100 µM. The TGI [46] was > 100 µM, the TGI [47] was > 100 µM and the TGI [48] was > 100 µM. For the same compound, the TGI [49] was > 100 µM, the TGI [50] was > 100 µM and the TGI [51] was > 100 µM. For the same compound, the TGI [52] was 32.5 µM, the TGI [53] was 86.3 µM and the TGI [54] was > 100 µM. The TGI [55] was > 100 µM, the TGI [56] was > 100 µM and the TGI [57] was > 100 µM. The TGI [58] was > 100 µM and the TGI [59] was > 100 µM.
`NC1CCCCC1N.O=C1C=C/C(=C(/c2ccc(O)c(Br)c2)c2ccccc2S(=O)(=O)[O-])C=C1Br.O=C1C=C/C(=C(/c2ccc(O)c(Br)c2)c2ccccc2S(=O)(=O)[O-])C=C1Br.[Pt+4]` was tested, and the GI50 [1] was 2.42 µM, the TGI [1] was > 100 µM and the GI50 [2] was 22.1 µM. The TGI [2] was > 100 µM, the GI50 [3] was 2.42 µM and the TGI [3] was > 100 µM. For the same compound, the GI50 [4] was 1.42 µM, the TGI [4] was > 100 µM and the GI50 [7] was 1.64 µM. The TGI [7] was 40.6 µM, the GI50 [8] was 5.27 µM and the TGI [8] was > 100 µM. It also gave a GI50 [10] of 0.813 µM, a TGI [10] of 29.2 µM and a GI50 [11] of 93 µM. For the same compound, the TGI [11] was > 100 µM, the GI50 [12] was 4.66 µM and the TGI [12] was > 100 µM. The GI50 [13] was 0.79 µM, the TGI [13] was > 100 µM and the GI50 [14] was 3.85 µM. For the same compound, the TGI [14] was > 100 µM, the GI50 [15] was 1.43 µM and the TGI [15] was > 100 µM. The GI50 [16] was 7.95 µM, the TGI [16] was > 100 µM and the GI50 [17] was 7.88 µM. The TGI [17] was 9.95 µM, the GI50 [18] was > 100 µM and the TGI [18] was > 100 µM. The GI50 [19] was 1.67 µM, the TGI [19] was > 100 µM and the GI50 [20] was 4.17 µM. For the same compound, the TGI [20] was > 100 µM, the GI50 [21] was 8.79 µM and the TGI [21] was > 100 µM. For the same compound, the GI50 [22] was 32.6 µM, the TGI [22] was > 100 µM and the GI50 [23] was 0.755 µM. The TGI [23] was > 100 µM, the GI50 [24] was 3.18 µM and the TGI [24] was > 100 µM. The GI50 [25] was 4.43 µM, the TGI [25] was > 100 µM and the GI50 [26] was 7.77 µM. The TGI [26] was > 100 µM, the GI50 [27] was 0.539 µM and the TGI [27] was 32.2 µM. The GI50 [28] was 0.664 µM, the TGI [28] was 21.3 µM and the GI50 [31] was 2.88 µM. The TGI [31] was > 100 µM, the GI50 [32] was 1.54 µM and the TGI [32] was > 100 µM. It also gave a GI50 [33] of 1.9 µM, a TGI [33] of 22.6 µM and a GI50 [34] of 13.8 µM. The TGI [34] was > 100 µM, the GI50 [35] was 2.35 µM and the TGI [35] was > 100 µM. The GI50 [36] was 2 µM, the TGI [36] was 87.7 µM and the GI50 [37] was 1.27 µM. The TGI [37] was > 100 µM, the GI50 [38] was 6.29 µM and the TGI [38] was > 100 µM. For the same compound, the GI50 [39] was 19.8 µM, the TGI [39] was 89.7 µM and the GI50 [41] was 0.885 µM. The TGI [41] was > 100 µM, the GI50 [42] was 4.99 µM and the TGI [42] was > 100 µM. For the same compound, the GI50 [43] was 2.62 µM, the TGI [43] was 50.8 µM and the GI50 [44] was 10.1 µM. The TGI [44] was > 100 µM, the GI50 [45] was 2.35 µM and the TGI [45] was 38.2 µM. For the same compound, the GI50 [46] was 3.29 µM, the TGI [46] was 21.4 µM and the GI50 [47] was 54.2 µM. For the same compound, the TGI [47] was > 100 µM, the GI50 [48] was 3.59 µM and the TGI [48] was > 100 µM. The GI50 [49] was 7.14 µM, the TGI [49] was > 100 µM and the GI50 [50] was 0.992 µM. The TGI [50] was > 100 µM, the GI50 [51] was 48.2 µM and the TGI [51] was > 100 µM. It also gave a GI50 [53] of 0.578 µM, a TGI [53] of 52.2 µM and a GI50 [54] of 57.2 µM. For the same compound, the TGI [54] was > 100 µM, the GI50 [55] was 5.21 µM and the TGI [55] was > 100 µM. The GI50 [56] was 5.38 µM, the TGI [56] was > 100 µM and the GI50 [57] was 9.45 µM. The TGI [57] was > 100 µM, the GI50 [58] was 8.03 µM and the TGI [58] was > 100 µM. For the same compound, the GI50 [59] was 0.112 µM and the TGI [59] was 0.927 µM.
In the case of `NS(=O)(=O)c1ccc(Nc2c3ccccc3nc3c(C(=O)N4CCN(CCO)CC4)cccc23)cc1`, the TGI [1] was > 100 µM, the TGI [2] was > 100 µM and the TGI [3] was > 100 µM. The TGI [4] was > 100 µM, the TGI [5] was > 100 µM and the TGI [6] was > 100 µM. The TGI [7] was > 100 µM, the TGI [9] was > 100 µM and the TGI [10] was > 100 µM. The TGI [11] was > 100 µM, the TGI [12] was > 100 µM and the TGI [13] was > 100 µM. The TGI [14] was > 100 µM, the TGI [15] was 65.5 µM and the TGI [16] was > 100 µM. The TGI [17] was > 100 µM, the TGI [18] was > 100 µM and the TGI [19] was > 100 µM. For the same compound, the TGI [20] was > 100 µM, the TGI [21] was > 100 µM and the TGI [22] was > 100 µM. For the same compound, the TGI [23] was > 100 µM, the TGI [24] was > 100 µM and the TGI [25] was > 100 µM. The TGI [26] was > 100 µM, the TGI [27] was > 100 µM and the TGI [28] was > 100 µM. The TGI [29] was > 100 µM, the TGI [30] was > 100 µM and the TGI [31] was > 100 µM. The TGI [32] was > 100 µM, the TGI [33] was > 100 µM and the TGI [34] was > 100 µM. The TGI [35] was > 100 µM, the TGI [36] was > 100 µM and the TGI [37] was > 100 µM. For the same compound, the TGI [39] was > 100 µM, the TGI [41] was > 100 µM and the TGI [42] was > 100 µM. The TGI [43] was > 100 µM, the TGI [44] was > 100 µM and the TGI [45] was > 100 µM. The TGI [46] was > 100 µM, the TGI [47] was > 100 µM and the TGI [48] was > 100 µM. For the same compound, the TGI [49] was > 100 µM, the TGI [50] was > 100 µM and the TGI [51] was > 100 µM. The TGI [52] was > 100 µM, the TGI [53] was > 100 µM and the TGI [54] was > 100 µM. The TGI [55] was > 100 µM, the TGI [56] was > 100 µM and the TGI [57] was > 100 µM. The TGI [58] was > 100 µM and the TGI [59] was > 100 µM.
